Measurements taken from patent US11396535B2, “Cyclic peptide analogs of melanocortin and amanitin and methods of making such” (THE UNIVERSITY OF BRITISH COLUMBIA, priority 2019, dated 2022).
Starred links: 1 amine or outer side, 2 acyl side, 3 side chain; linkers in the order of their positions; H or OH if unused. Positions of bridges follow the written chain, without caps; N, C: chain ends. Non-standard residues stand in square brackets, D forms with d. Residues, ends and D or L forms follow the SMILES beside them. ξ: configuration not given here. Ile(4R-OH,5-OH) = C[C@H]([C@H](N)C(=O)O)[C@@H](O)CO; X1 = O=C([C@H](Cn1cc2ccccc2c1[*:3])N[*:1])[*:2]; Hyp = O=C(O)[C@@H]1C[C@@H](O)CN1; Dap = NC[C@H](N)C(=O)O; ξC = NC(CS)C(=O)O

What was measured:
[1] = test system: CHO cells; assay type: cell-based; details: for toxicity (cytotoxicity): triplicate
Description: FIG. 6: Cytotoxicity assays—CHO cells were incubated with α-amanitin, the monocyclic octapeptide precursor and the FlICk-amanitin-1 for 72 h in triplicate and cell viability was assessed by spectrophotometry with MTT indicator.
FIGS. 11A-11B: MTT cell viability assay against CHO cells: (A) alpha-amanitin; (B) FlICk-amanitin.
Both FlICk amanitin and authentic α-amanitin (purchased from Sigma Aldrich) were dissolved in H2O. The FlICk amanitin concentrations used were 100 μM, 20 μM, 4 μM, 0.8 μM, 0.16 μM, 0.032 μM, 0.0064 μM, 0.00128 μM. The α-amanitin concentrations used were 10 μM, 2 μM, 0.4 μM, 0.08 μM, 0.016 μM, 0.0032 μM, 0.00064 μM, 0.000128 μM, 0.0000256 μM. The cell culture and MTT assay procedures were carried out as per our report on the total synthesis of α-amanitin^38. The MTT assays were run in triplicate. The IC50 assay curves were produced using Prism Software.

[2] = test system: CHO cells; details: literature value, read-out: IC50 (cytotoxic to CHO cells); cited from earlier work
[3] = target: melanocortin receptors; details: literature value; cited from earlier work

CC[C@H](C)[C@@H]1NC(=O)CNC(=O)[C@H](CN)NC(=O)[C@H]([C@@H](C)[C@@H](O)CO)NC(=O)[C@@H]2C[C@@H](O)CN2C(=O)[C@H](CC(N)=O)NC(=O)[C@H](CS)NC(=O)CNC1=O [monocyclic octapeptide precursor, Cyclo-[DhIle-Dap-Gly-Ile-Gly-Cys-Asn-Hyp]] (cyclo(CN[Hyp][Ile(4R-OH,5-OH)][Dap]GIG))
toxicity (cytotoxicity) ([1]; 72 h, MTT): no detectable toxicity

CC[C@H](C)[C@@H]1NC(=O)CNC(=O)[C@@H]2Cn3cc4ccccc4c3SCC(NC(=O)CNC1=O)C(=O)N[C@@H](CC(N)=O)C(=O)N1C[C@H](O)C[C@H]1C(=O)N[C@@H]([C@@H](C)[C@@H](O)CO)C(=O)N2 [FlICk-amanitin-1] (cyclo(GIG[ξC]N[Hyp][Ile(4R-OH,5-OH)][X1]); thioether 4-8)
fold less toxic than α-amanitin ([1]; 72 h, MTT): approximately 100 fold | toxicity (cytotoxicity) ([1]; 72 h, MTT): detectable toxicity | fold less toxic than dideoxy-amanitin ([1]; versus dideoxy-amanitin IC50 of 2 μM): 20 fold

α-amanitin
IC50 [2]: ~500 nM

N-Acetyl-L-norleucyl-L-α-aspartyl-L-histidyl-D-phenylalanyl-L-arginyl-L-tryptophyl-L-lysinamide (2→7)-lactam [Melanotan-II]
Kd [3]: ~1 nM
